Results on 31 molecules are retold here after US9187472B2 (AbbVie Inc., priority 2012, dated 2015).

A word on the IC50: it is the concentration at which inhibition is half-maximal. Higher therefore signals weaker potency in that assay.

The test deals with PC3 cells. Briefly: NAMPT Cell Proliferation Assay. It counts as cell-based. The note with it: Homo sapiens, PC-3, 120 h, 5 days incubation, cell viability by Cell Titer Glo. In short, it runs like this: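 IC50 values derive from sigmoidal dose-response fits of percent inhibition of PC3 viability, measured by luminescence after 5 days of compound treatment. Cells (500/well, RPMI containing 10% heat-inactivated FBS) are allowed to attach overnight, and compounds are tested at 10-fold dilutions between 10 μM and 1×10^−5 μM.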
(Cellular ATP, detected with luciferase, serves as a proxy for viable cell number.)
For the molecule `COc1ncc(C)cc1C(=O)N1CCC(c2ccc(C(=O)NCc3ccn4ccnc4c3)cc2)CC1` [Example 1114, N-(imidazo[1,2-a]pyridin-7-ylmethyl)-4-{1-[(2-methoxy-5-methylpyridin-3-yl)carbonyl]piperidin-4-yl}benzamide], the midpoint of inhibition, the IC50, lay at 21.8 nM.
Turning to `COc1ccc(C(=O)N2CCC(c3ccc(C(=O)NCc4ccn5ccnc5c4)cc3)CC2)nc1OC` [Example 1115, 4-{1-[(5,6-dimethoxypyridin-2-yl)carbonyl]piperidin-4-yl}-N-(imidazo[1,2-a]pyridin-7-ylmethyl)benzamide], half-maximal inhibition (IC50) was put at 21.2 nM.
For the molecule `Cn1cc2c(C(=O)N3CCC(c4ccc(C(=O)NCc5ccn6ccnc6c5)cc4)CC3)cccc2n1` [Example 1116, N-(imidazo[1,2-a]pyridin-7-ylmethyl)-4-{1-[(2-methyl-2H-indazol-4-yl)carbonyl]piperidin-4-yl}benzamide], inhibition was half-maximal at 6.19 nM (IC50).
The same measure for `CCC1CCCCN1C(=O)C(=O)N1CCC(c2ccc(C(=O)NCc3ccn4ccnc4c3)cc2)CC1` (stereo not shown) [Example 1117, 4-{1-[(2-ethylpiperidin-1-yl)(oxo)acetyl]piperidin-4-yl}-N-(imidazo[1,2-a]pyridin-7-ylmethyl)benzamide]: 65.7 nM; for `Cn1cc2ccc(C(=O)N3CCC(c4ccc(C(=O)NCc5ccn6ccnc6c5)cc4)CC3)cc2n1` [Example 1118, N-(imidazo[1,2-a]pyridin-7-ylmethyl)-4-{1-[(2-methyl-2H-indazol-6-yl)carbonyl]piperidin-4-yl}benzamide]: 4.18 nM; for `Cn1ncc2c(C(=O)N3CCC(c4ccc(C(=O)NCc5ccn6ccnc6c5)cc4)CC3)cccc21` [Example 1119, N-(imidazo[1,2-a]pyridin-7-ylmethyl)-4-{1-[(1-methyl-1H-indazol-4-yl)carbonyl]piperidin-4-yl}benzamide]: 6.67 nM.
Regarding `O=C(NCc1ccn2ccnc2c1)c1ccc(C2CCN(C(=O)c3ccoc3C(F)(F)F)CC2)cc1` [Example 1120, N-(imidazo[1,2-a]pyridin-7-ylmethyl)-4-(1-{[2-(trifluoromethyl)furan-3-yl]carbonyl}piperidin-4-yl)benzamide], the IC50 was determined as 2.37 nM.
The same measure for `O=C(NCc1ccn2ccnc2c1)Nc1ccc(C2CCN(C(=O)c3cnc(C4CC4)s3)CC2)cc1` [Example 1121, 1-(4-{1-[(2-cyclopropyl-1,3-thiazol-5-yl)carbonyl]piperidin-4-yl}phenyl)-3-(imidazo[1,2-a]pyridin-7-ylmethyl)urea]: 8.42 nM; for `O=C(NCc1ccn2ccnc2c1)Nc1ccc(C2CCN(C(=O)c3ccc4scnc4c3)CC2)cc1` [Example 1122, 1-{4-[1-(1,3-benzothiazol-5-ylcarbonyl)piperidin-4-yl]phenyl}-3-(imidazo[1,2-a]pyridin-7-ylmethyl)urea]: 9.96 nM; for `Cn1ncc2ccc(C(=O)N3CCC(c4ccc(NC(=O)NCc5ccn6ccnc6c5)cc4)CC3)cc21` [Example 1123, 1-(imidazo[1,2-a]pyridin-7-ylmethyl)-3-(4-{1-[(1-methyl-1H-indazol-6-yl)carbonyl]piperidin-4-yl}phenyl)urea]: 7.11 nM.
To `Cc1nn(C)c(C(=O)N2CCC(c3ccc(NC(=O)NCc4ccn5ccnc5c4)cc3)CC2)c1Cl` [Example 1124, 1-(4-{1-[(4-chloro-1,3-dimethyl-1H-pyrazol-5-yl)carbonyl]piperidin-4-yl}phenyl)-3-(imidazo[1,2-a]pyridin-7-ylmethyl)urea] belongs 0.344 nM; to `CCc1ccc(C(=O)N2CCC(c3ccc(NC(=O)NCc4ccn5ccnc5c4)cc3)CC2)nc1` [Example 1125, 1-(4-{1-[(5-ethylpyridin-2-yl)carbonyl]piperidin-4-yl}phenyl)-3-(imidazo[1,2-a]pyridin-7-ylmethyl)urea], 4.77 nM; to `N#Cc1cnc(C(=O)N2CCC(c3ccc(NC(=O)NCc4ccn5ccnc5c4)cc3)CC2)c(Cl)c1` [Example 1126, 1-(4-{1-[(3-chloro-5-cyanopyridin-2-yl)carbonyl]piperidin-4-yl}phenyl)-3-(imidazo[1,2-a]pyridin-7-ylmethyl)urea], 2.36 nM.
To `CC1CC(C#N)(C(=O)N2CCC(c3ccc(NC(=O)NCc4ccn5ccnc5c4)cc3)CC2)C1` (stereo not shown) [Example 1127, 1-(4-{1-[(1-cyano-3-methylcyclobutyl)carbonyl]piperidin-4-yl}phenyl)-3-(imidazo[1,2-a]pyridin-7-ylmethyl)urea] belongs 2.99 nM; to `CCc1c(C(=O)N2CCC(c3ccc(NC(=O)NCc4ccn5ccnc5c4)cc3)CC2)nnn1CC` [Example 1128, 1-(4-{1-[(1,5-diethyl-1H-1,2,3-triazol-4-yl)carbonyl]piperidin-4-yl}phenyl)-3-(imidazo[1,2-a]pyridin-7-ylmethyl)urea], 6.05 nM; to `O=C(NCc1ccn2ccnc2c1)Nc1ccc(C2CCN(C(=O)c3cc4occc4s3)CC2)cc1` [Example 1129, 1-(imidazo[1,2-a]pyridin-7-ylmethyl)-3-{4-[1-(thieno[3,2-b]furan-5-ylcarbonyl)piperidin-4-yl]phenyl}urea], 8.05 nM.
The molecule `COc1csc(C(=O)N2CCC(c3ccc(NC(=O)NCc4ccn5ccnc5c4)cc3)CC2)c1` [Example 1130, 1-(imidazo[1,2-a]pyridin-7-ylmethyl)-3-(4-{1-[(4-methoxythiophen-2-yl)carbonyl]piperidin-4-yl}phenyl)urea] had an IC50 of 2.96 nM.
Consider `N#Cc1ccc(C(=O)N2CCC(c3ccc(NC(=O)NCc4ccn5ccnc5c4)cc3)CC2)s1` [Example 1131, 1-(4-{1-[(5-cyanothiophen-2-yl)carbonyl]piperidin-4-yl}phenyl)-3-(imidazo[1,2-a]pyridin-7-ylmethyl)urea], for which the IC50 came to 34.4 nM.
The same measure for `O=C(NCc1ccn2ccnc2c1)Nc1ccc(C2CCN(C(=O)c3ccc(C4CC4)cn3)CC2)cc1` [Example 1132, 1-(4-{1-[(5-cyclopropylpyridin-2-yl)carbonyl]piperidin-4-yl}phenyl)-3-(imidazo[1,2-a]pyridin-7-ylmethyl)urea]: 8.96 nM.
To `N#Cc1cc(F)c(C(=O)N2CCC(c3ccc(NC(=O)NCc4ccn5ccnc5c4)cc3)CC2)c(F)c1` [Example 1133, 1-{4-[1-(4-cyano-2,6-difluorobenzoyl)piperidin-4-yl]phenyl}-3-(imidazo[1,2-a]pyridin-7-ylmethyl)urea] belongs 1 nM.
To `CCn1cc(C(=O)N2CCC(c3ccc(NC(=O)NCc4ccn5ccnc5c4)cc3)CC2)c(C(C)C)n1` [Example 1134, 1-[4-(1-{[1-ethyl-3-(propan-2-yl)-1H-pyrazol-4-yl]carbonyl}piperidin-4-yl)phenyl]-3-(imidazo[1,2-a]pyridin-7-ylmethyl)urea] belongs 5.51 nM; to `O=C(NCc1ccn2ccnc2c1)Nc1ccc(C2CCN(C(=O)c3coc4ccccc34)CC2)cc1` [Example 1135, 1-{4-[1-(1-benzofuran-3-ylcarbonyl)piperidin-4-yl]phenyl}-3-(imidazo[1,2-a]pyridin-7-ylmethyl)urea], 4.23 nM; to `COc1cc(C(=O)N2CCC(c3ccc(NC(=O)NCc4ccn5ccnc5c4)cc3)CC2)ncc1C` [Example 1136, 1-(imidazo[1,2-a]pyridin-7-ylmethyl)-3-(4-{1-[(4-methoxy-5-methylpyridin-2-yl)carbonyl]piperidin-4-yl}phenyl)urea], 3.02 nM.
Turning to `O=C(NCc1ccn2ccnc2c1)Nc1ccc(C2CCN(C(=O)c3ccnn3C3CCCC3)CC2)cc1` [Example 1137, 1-(4-{1-[(1-cyclopentyl-1H-pyrazol-5-yl)carbonyl]piperidin-4-yl}phenyl)-3-(imidazo[1,2-a]pyridin-7-ylmethyl)urea], the IC50 turned out to be 0.277 nM.
The same measure for `O=C(NCc1ccn2ccnc2c1)Nc1ccc(C2CCN(C(=O)c3scnc3Cl)CC2)cc1` [Example 1138, 1-(4-{1-[(4-chloro-1,3-thiazol-5-yl)carbonyl]piperidin-4-yl}phenyl)-3-(imidazo[1,2-a]pyridin-7-ylmethyl)urea]: 3.85 nM; for `N#Cc1ccsc1C(=O)N1CCC(c2ccc(NC(=O)NCc3ccn4ccnc4c3)cc2)CC1` [Example 1139, 1-(4-{1-[(3-cyanothiophen-2-yl)carbonyl]piperidin-4-yl}phenyl)-3-(imidazo[1,2-a]pyridin-7-ylmethyl)urea]: 1.41 nM.
The same measure for `CC(C)c1ncncc1C(=O)N1CCC(c2ccc(NC(=O)NCc3ccn4ccnc4c3)cc2)CC1` [Example 1140, 1-(imidazo[1,2-a]pyridin-7-ylmethyl)-3-[4-(1-{[4-(propan-2-yl)pyrimidin-5-yl]carbonyl}piperidin-4-yl)phenyl]urea]: 5.84 nM; for `CCCc1c(C(=O)N2CCC(c3ccc(NC(=O)NCc4ccn5ccnc5c4)cc3)CC2)cnn1C` [Example 1141, 1-(imidazo[1,2-a]pyridin-7-ylmethyl)-3-(4-{1-[(1-methyl-5-propyl-1H-pyrazol-4-yl)carbonyl]piperidin-4-yl}phenyl)urea]: 2.2 nM; for `CC(C(=O)N1CCC(c2ccc(NC(=O)NCc3ccn4ccnc4c3)cc2)CC1)n1ccc(C2CC2)n1` (stereo not shown) [Example 1142, 1-(4-{1-[2-(3-cyclopropyl-1H-pyrazol-1-yl)propanoyl]piperidin-4-yl}phenyl)-3-(imidazo[1,2-a]pyridin-7-ylmethyl)urea]: 2.9 nM.
The same measure for `O=C(NCc1ccn2ccnc2c1)Nc1ccc(C2CCN(C(=O)c3cc4ccccn4n3)CC2)cc1` [Example 1143, 1-(imidazo[1,2-a]pyridin-7-ylmethyl)-3-{4-[1-(pyrazolo[1,5-a]pyridin-2-ylcarbonyl)piperidin-4-yl]phenyl}urea]: 17.4 nM.
Molecule `O=C(NCc1ccn2ccnc2c1)Nc1ccc(C2CCN(C(=O)c3ccc4occc4c3)CC2)cc1` [Example 1144, 1-{4-[1-(1-benzofuran-5-ylcarbonyl)piperidin-4-yl]phenyl}-3-(imidazo[1,2-a]pyridin-7-ylmethyl)urea] had an IC50 of 9.6 nM.
